Measured values published in patent US8575145B2, “Triazolopyridine compounds as PIM kinase inhibitors” (Array BioPharma Inc., priority 2008, dated 2013).
pIC50: −log10 of the molar value. Structures can show the parent of a compound that is named as a salt. Where two headings read alike, the source gives them in different places.

Key:
[1] = molecular target: GST-tagged recombinant full-length human PIM-2 (Homo sapiens (Human), UniProt Q9P1W9); assay: PIM-2 Enzyme Assay; details: for pIC50: read-out: PIM-2 IC50
Chain of GST-tagged recombinant full-length human PIM-2 (Q9P1W9 whole entry): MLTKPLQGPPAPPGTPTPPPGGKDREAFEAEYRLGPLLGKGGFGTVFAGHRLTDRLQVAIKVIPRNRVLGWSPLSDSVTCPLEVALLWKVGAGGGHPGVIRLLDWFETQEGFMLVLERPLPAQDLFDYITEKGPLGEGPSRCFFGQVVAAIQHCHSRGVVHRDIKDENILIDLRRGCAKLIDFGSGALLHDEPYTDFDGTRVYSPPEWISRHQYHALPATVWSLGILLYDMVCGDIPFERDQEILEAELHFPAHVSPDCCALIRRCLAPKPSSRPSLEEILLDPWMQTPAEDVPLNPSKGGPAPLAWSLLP

PIM-1 = PIM-1 (Homo sapiens (Human), UniProt P11309); assay: PIM-1 Enzyme Assay; assay type: biochemical
Chain of PIM-1 (P11309 whole entry, species assumed): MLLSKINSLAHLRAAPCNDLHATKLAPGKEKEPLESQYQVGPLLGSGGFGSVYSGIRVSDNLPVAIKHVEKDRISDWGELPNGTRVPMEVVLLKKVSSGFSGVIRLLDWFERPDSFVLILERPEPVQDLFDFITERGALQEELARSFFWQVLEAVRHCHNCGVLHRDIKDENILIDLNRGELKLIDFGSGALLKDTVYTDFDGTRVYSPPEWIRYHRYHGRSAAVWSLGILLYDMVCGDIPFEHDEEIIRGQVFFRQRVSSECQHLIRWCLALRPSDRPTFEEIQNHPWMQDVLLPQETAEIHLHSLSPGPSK
Method: The amount of radiolabeled product is then measured by liquid scintillation counting. The final buffer conditions were as follows: 20 mM K^+MOPS, pH 7.4, 10 mM MgCl2, 0.005% Tween-20, 1 mM DTT. […] Incubations were carried out for 60 min at 22° C. and quenched with 75 μL of 200 mM H3PO4, filtered through a Whatman P81 plate and washed (1×200 μL and 5×100 μL ) with 200 mM H3PO4. Liquid scintillation cocktail (50 μL ) was then added per well, and the plate was counted for 30 s/well using a TopCount NXT.
One-μL aliquots of these were then transferred to the assay mixtures above to give a final concentration of DMSO of 2%. […] For each plate, percent of control (POC) values were calculated for each well. IC50's were estimated from the POC's using a standard 4-parameter logistic model. The IC50 is defined as the concentration of inhibitor at which the POC equals 50 for the fitted curve.

[2] = 4 μM ATP, […] PIM-2, dihydrochloride

Row | Compound | pIC50 ([1]; 4 μM ATP, […] PIM-2) | pIC50 (PIM-1; 35 μM ATP, 0.25 nM PIM-1) | also measured
1 | FC1CNCCC1Oc1cccc2ccc(-c3nnc4ccccn34)nc12 (single isomer, unassigned) [Example 94, 2-([1,2,4]triazolo[4,3-a]pyridin-3-yl)-8-((cis)-3-fluoropiperidin-4-yloxy)quinoline dihydrochloride] | – | – | pIC50 [1, 2]: 6.00; pIC50 (PIM-1; dihydrochloride): 7.71
2 | FC1CNCCC1Oc1cccc2ccc(-c3nnc4ccccn34)nc12 (single isomer, unassigned) [Example 95, 2-([1,2,4]triazolo[4,3-a]pyridin-3-yl)-8-((cis)-3-fluoropiperidin-4-yloxy)quinoline dihydrochloride] | – | – | pIC50 [1, 2]: 6.32; pIC50 (PIM-1; dihydrochloride): 8.01
3 | FC1CNCCC1Oc1cccc2ccc(-c3nnc4ccccn34)nc12 (single isomer, unassigned) [Example 96, 2-([1,2,4]triazolo[4,3-a]pyridin-3-yl)-8-((trans)-3-fluoropiperidin-4-yloxy)quinoline dihydrochloride] | – | – | pIC50 [1, 2]: 6.00; pIC50 (PIM-1; dihydrochloride): 7.97
4 | FC1CNCCC1Oc1cccc2ccc(-c3nnc4ccccn34)nc12 (single isomer, unassigned) [Example 97, 2-([1,2,4]triazolo[4,3-a]pyridin-3-yl)-8-((trans)-3-fluoropiperidin-4-yloxy)quinoline dihydrochloride] | – | – | pIC50 [1, 2]: 6.00; pIC50 (PIM-1; dihydrochloride): 7.31
5 | CC(C)(CN)COc1cc(F)cc2ccc(-c3nnc4ccccn34)nc12 [Example 39, 3-(2-([1,2,4]triazolo[4,3-a]pyridin-3-yl)-6-fluoroquinolin-8-yloxy)-2,2-dimethylpropan-1-amine] | 7.59 | 9.26 | –
6 | CC(C)(CN)COc1ccc(F)c2ccc(-c3nnc4ccccn34)nc12 [Example 43, 3-(2-([1,2,4]triazolo[4,3-a]pyridin-3-yl)-5-fluoroquinolin-8-yloxy)-2,2-dimethylpropan-1-amine] | 5.00 | 6.86 | –
7 | c1cncc(COc2cccc3ccc(-c4nnc5ccccn45)nc23)c1 [Example 44, 2-([1,2,4]triazolo[4,3-a]pyridin-3-yl)-8-(pyridin-3-ylmethoxy)quinoline] | 5.13 | 7.20 | –
8 | c1cc(OCc2ccncc2)c2nc(-c3nnc4ccccn34)ccc2c1 [Example 45, 2-([1,2,4]triazolo[4,3-a]pyridin-3-yl)-8-(pyridin-4-ylmethoxy)quinoline] | 5.76 | 7.57 | –
9 | FC1CCNCCC1Oc1cccc2ccc(-c3nnc4ccccn34)nc12 (stereo not shown) [Example 46, 2-([1,2,4]triazolo[4,3-a]pyridin-3-yl)-8-(5-fluoroazepan-4-yloxy)quinoline] | – | 9.00 | IC50 ([1]; PIM-2 IC50 (nM), 4 μM ATP, […] PIM-2): 96 nM
10 | COC[C@@H]1CC(Oc2cccc3ccc(-c4nnc5ccccn45)nc23)CCN1 (stereo partly shown) [Example 57] | 6.32 | 8.40 | –
11 | CC(C)(CN)COc1c(Br)ccc2ccc(-c3nnc4ccccn34)nc12 [Example 58, 3-(2-([1,2,4]triazolo[4,3-a]pyridin-3-yl)-7-bromoquinolin-8-yloxy)-2,2-dimethylpropan-1-amine dihydrochloride] | 6.69 | – | pIC50 (PIM-1): 8.00
12 | Fc1ccn2c(-c3ccc4cccc(OC5CCNCC5F)c4n3)nnc2c1 (stereo not drawn) [Example 60, cis-2-(7-fluoro-[1,2,4]triazolo[4,3-a]pyridin-3-yl)-8-3-fluoropiperidin-4-yloxy)quinoline] | 5.75 | 7.59 | –
13 | CC(C)(CN)COc1cccc2ccc(-c3nnc4ccc(Br)cn34)nc12 [Example 63, 3-(2-(6-bromo-[1,2,4]triazolo[4,3-a]pyridin-3-yl)quinolin-8-yloxy)-2,2-dimethylpropan-1-amine dihydrochloride] | – | – | pIC50 [1]: 7.00; pIC50 (PIM-1): 9.19
14 | CC(C)(CN)COc1cccc2ccc(-c3nnc4ccc(-c5ccccc5)cn34)nc12 [Example 65, 2,2-Dimethyl-3-(2-(6-phenyl-[1,2,4]triazolo[4,3-a]pyridin-3-yl)quinolin-8-yloxy)propan-1-amine dihydrochloride] | 6.76 | 9.10 | –
15 | c1cc(OCC2(CC3CC3)CCNCC2)c2nc(-c3nnc4ccccn34)ccc2c1 [Example 69, 2-([1,2,4]triazolo[4,3-a]pyridin-3-yl)-8-44-(cyclopropylmethyl)piperidin-4-yl)methoxy)quinoline dihydrochloride] | 7.02 | – | pIC50 (PIM-1): 8.80
16 | CC(C)C1(COc2cccc3ccc(-c4nnc5ccccn45)nc23)CCNCC1 [Example 70, 2-([1,2,4]triazolo[4,3-a]pyridin-3-yl)-8-((4-isopropylpiperidin-4-yl)methoxy)quinoline dihydrochloride] | 7.17 | – | pIC50 (PIM-1): 9.12

Row | Compound | pIC50 ([1]; 4 μM ATP, […] PIM-2) | pIC50 (PIM-1; 35 μM ATP, 0.25 nM PIM-1) | also measured
17 | OC1(COc2cccc3ccc(-c4nnc5ccccn45)nc23)CCNCC1 [Example 72] | 6.23 | 8.28 | –
18 | c1cc(Oc2ccncc2)c2nc(-c3nnc4ccccn34)ccc2c1 [Example 74, 2-([1,2,4]triazolo[4,3-a]pyridin-3-yl)-8-(pyridin-4-yloxy)quinoline] | 5.70 | 6.82 | –
19 | Nc1cc(Oc2cccc3ccc(-c4nnc5ccccn45)nc23)ccn1 [Example 75, 4-(2-([1,2,4]triazolo[4,3-a]pyridin-3-yl)quinolin-8-yloxy)pyridin-2-amine] | 5.05 | 6.58 | –
20 | Nc1nccc(Oc2cccc3ccc(-c4nnc5ccccn45)nc23)n1 [Example 76, 4-(2-([1,2,4]triazolo[4,3-a]pyridin-3-yl)quinolin-8-yloxy)pyrimidin-2-amine] | 5.00 | 6.19 | –
21 | FC1(COc2cccc3ccc(-c4nnc5ccc(Br)cn45)nc23)CCNCC1 [Example 77, 2-(6-bromo-[1,2,4]triazolo[4,3-a]pyridin-3-yl)-8-((4-fluoropiperidin-4-yl)methoxy)-quinoline dihydrochloride] | – | 7.77 | pIC50 [1]: 5.86
22 | FC1(COc2cccc3ccc(-c4nnc5ccc(C6CC6)cn45)nc23)CCNCC1 [Example 79, 2-(6-cyclopropyl-[1,2,4]triazolo[4,3-a]pyridin-3-yl)-8-((4-fluoropiperidin-4-yl)methoxy)quinoline dihydrochloride] | 7.26 | 9.70 | –
23 | FC1(COc2cccc3ccc(-c4nnc5ccc(-c6ccccc6)cn45)nc23)CCNCC1 [Example 81, 8-((4-fluoropiperidin-4-yl)methoxy)-2-(6-phenyl-[1,2,4]triazolo[4,3-a]pyridin-3-yl)quinoline dihydrochloride] | 6.85 | – | pIC50 (PIM-1): 9.35
24 | NC(=O)CN1CCC(F)(COc2cccc3ccc(-c4nnc5ccccn45)nc23)CC1 [Example 83, 2-(4-((2-([1,2,4]triazolo[4,3-a]pyridin-3-yl)quinolin-8-yloxy)methyl)-4-fluoropiperidin-1-yl)acetamide] | 6.71 | 8.40 | –
25 | CN1CCC(F)(COc2cccc3ccc(-c4nnc5ccccn45)nc23)CC1 [Example 84, 2-([1,2,4]triazolo[4,3-a]pyridin-3-yl)-8-((4-fluoro-1-methylpiperidin-4-yl)methoxy)quinoline dihydrochloride] | 7.14 | – | pIC50 (PIM-1): 8.70
26 | OCCN1CCC(F)(COc2cccc3ccc(-c4nnc5ccccn45)nc23)CC1 [Example 85, 2-(4-((2-([1,2,4]triazolo[4,3-a]pyridin-3-yl)quinolin-8-yloxy)methyl)-4-fluoropiperidin-1-yl)ethanol dihydrochloride] | – | 8.70 | pIC50 [1]: 6.98
27 | Fc1cc(OC2CCNCC2(F)F)c2nc(-c3nnc4ccccn34)ccc2c1 (stereo not shown) [Example 93, 2-([1,2,4]triazolo[4,3-a]pyridin-3-yl)-8-(3,3-difluoropiperidin-4-yloxy)-6-fluoroquinoline dihydrochloride] | 6.30 | 8.36 | –
28 | Fc1ccc2nnc(-c3ccc4cccc(OCC5(F)CCNCC5)c4n3)n2c1 [Example 103, 2-(6-fluoro-[1,2,4]triazolo[4,3-a]pyridin-3-yl)-8-((4-fluoropiperidin-4-yl)methoxy)quinoline dihydrochloride] | – | 8.85 | pIC50 [1]: 7.18
29 | CCN1CCC(F)(COc2cccc3ccc(-c4nnc5ccccn45)nc23)CC1 [Example 104, 2-([1,2,4]triazolo[4,3-a]pyridin-3-yl)-8((1-ethyl-4-fluoropiperidin-4-yl)methoxy)quinoline dihydrochloride] | 6.72 | 8.41 | –
30 | FCCN1CCC(F)(COc2cccc3ccc(-c4nnc5ccccn45)nc23)CC1 [Example 105, 2-([1,2,4]triazolo[4,3-a]pyridin-3-yl)-8-((4-fluoro-1-(2-fluoroethyl)piperidin-4-yl)methoxy)quinoline dihydrochloride] | 6.39 | 8.06 | –
31 | Fc1cc(OCC2(F)CCNCC2)c2nc(-c3nnc4ccccn34)ccc2c1 [Example 106, 2-([1,2,4]triazolo[4,3-a]pyridin-3-yl)-6-fluoro-8-((4-fluoropiperidin-4-yl)methoxy)quinoline dihydrochloride] | 7.60 | 9.30 | –
32 | FC1(COc2cccc3ccc(-c4nnc5ccccn45)nc23)CNC1 [Example 107, 2-([1,2,4]triazolo[4,3-a]pyridin-3-yl)-8-((3-fluoroazetidin-3-yl)methoxy)quinoline dihydrochloride] | 6.00 | 8.03 | –
